The target of data set [1] is T1, SHP-2 (Homo sapiens, UniProt Q06124).
T1 construct: GST (N); made in house; host or cells: E. coli BL21 (DE3)
T1 sequence (Q06124 1-593): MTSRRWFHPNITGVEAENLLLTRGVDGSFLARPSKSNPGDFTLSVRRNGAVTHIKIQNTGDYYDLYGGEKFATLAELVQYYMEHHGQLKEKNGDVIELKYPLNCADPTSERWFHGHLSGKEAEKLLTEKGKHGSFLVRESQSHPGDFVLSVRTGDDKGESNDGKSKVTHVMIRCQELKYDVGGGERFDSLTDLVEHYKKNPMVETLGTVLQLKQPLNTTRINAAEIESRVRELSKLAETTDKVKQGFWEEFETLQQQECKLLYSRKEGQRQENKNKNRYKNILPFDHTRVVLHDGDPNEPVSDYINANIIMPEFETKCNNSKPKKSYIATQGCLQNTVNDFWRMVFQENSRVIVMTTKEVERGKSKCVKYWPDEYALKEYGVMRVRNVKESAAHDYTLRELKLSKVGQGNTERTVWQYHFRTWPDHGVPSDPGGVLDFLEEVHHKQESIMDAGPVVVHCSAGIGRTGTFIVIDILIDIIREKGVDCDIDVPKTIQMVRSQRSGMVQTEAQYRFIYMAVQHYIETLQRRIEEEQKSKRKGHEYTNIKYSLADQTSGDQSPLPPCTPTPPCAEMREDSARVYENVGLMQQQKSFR
The data set can be described thus: Selectivity pNPP assay, full-length PTPs: SHP-2. The class given is biochemical. Conditions: full-length PTP, 10 nM, 500 µM pNPP. An excerpt: Constructs were transformed into BL21 (DE3) E. coli cells. Fusion proteins were purified on a glutathione sepharose column.

The test system of data set [2] is 3xTg-AD and WT mice. The data set can be described thus: Morris water maze (MWM), reference memory version. The data set is classed as in vivo, mouse. The protocol:
The reference memory version of the MWM task was performed as described previously. A crossover design was not used in the MWM task, as the mice were randomly assigned to each treatment condition and can be exposed to the task only once. Briefly, animals were trained to swim in a 1.4 m diameter pool to find a submerged platform (14 cm in diameter) located 1 cm below the surface of water (24°C), rendered opaque by the addition of nontoxic white paint. Animals were pseudo-randomly started from a different position at each trial and used distal visual-spatial cues to find the hidden escape platform that remained in the center of the same quadrant throughout all training days. Training measures included escape latency to reach the platform, swim speed, and thigmotaxis. […] At 24 h after the acquisition phase, the platform was removed and a probe trial of 90 s was given to evaluate the number of entries in a circular zone (three times the platform diameter) positioned around the previous platform location (target zone) and in the opposite quadrants. To assess visual deficits and motivation to escape from water, the probe test was followed by a cued task (60 s; three trials per animal) during which the platform was visible. The visible platform was moved to different locations between each trial. After each trial, animals were immediately placed under a warming lamp to dry to prevent hypothermia. […] Behavioral data from training, probe, and cued trials were acquired and analyzed using the ANY-maze automated tracking system (Stoelting, IL, USA).

Data set [3] in a line: Stability in imidazole buffer by 19F NMR. The class given is physicochemical. Conditions: 1 h. How it is done:
The tube was allowed to incubate at ambient temperature with shaking for 1 h. The mixture was diluted with 150 µL of DMSO-d6 and transferred to an NMR tube containing a capillary of trifluoroacetic acid as an external standard (−76.55 ppm). The stability of the compound in the buffer was confirmed by observing no differences in the sensitive ^19F-NMR spectra (Figure S4). As a control for compound modification, the experiment was repeated with the addition of 1 mM GSH in the incubation buffer.

Data set [4] has as its system GluN2B (Y1472), Pyk2 (Y402), ERK1/2 (Y204/187) in cortex. The data set can be described thus: Tyr phosphorylation of STEP substrates in cortex of WT mice after i.p. injection. The data set is classed as in vivo, mouse. Conditions: C57BL/6 mice, 10 mg/kg i.p., 3 h postinjection, relative to vehicle. How it is done: Wild-type, male C57BL/6 mice (3–6 mo) were used for all studies. […] Cortical tissues were dissected out 3 h postinjection and processed for subcellular fractionation. […] Homogenates were centrifuged at 800 × g to remove nuclei and large debris (P1). Synaptosomal fractions (P2) were prepared from S1 by centrifugation at 9,200 × g for 15 min. The P2 pellet was washed twice and was resuspended in TEVP buffer. […] Samples were prepared and resolved by SDS-PAGE, transferred to nitrocellulose membrane, and incubated with phospho-specific antibodies (anti-pY^204/187 ERK1/2, anti-pY^402 Pyk2, anti-pY^1472 GluN2B) or total protein antibodies (anti-ERK2, anti-Pyk2, and anti-NR2B) overnight at 4°C. Immunoreactivity was visualized using a Chemiluminescent substrate kit (Pierce Biotechnology, Rockford, IL) and detected using a G:BOX with the image program GeneSnap (Syngene, Cambridge, UK). All densitometric quantifications were performed using the Genetools program.

Data set [5] concerns the target T2, STEP (Mus musculus, UniProt P54830).
T2 sequence (P54830 1-541): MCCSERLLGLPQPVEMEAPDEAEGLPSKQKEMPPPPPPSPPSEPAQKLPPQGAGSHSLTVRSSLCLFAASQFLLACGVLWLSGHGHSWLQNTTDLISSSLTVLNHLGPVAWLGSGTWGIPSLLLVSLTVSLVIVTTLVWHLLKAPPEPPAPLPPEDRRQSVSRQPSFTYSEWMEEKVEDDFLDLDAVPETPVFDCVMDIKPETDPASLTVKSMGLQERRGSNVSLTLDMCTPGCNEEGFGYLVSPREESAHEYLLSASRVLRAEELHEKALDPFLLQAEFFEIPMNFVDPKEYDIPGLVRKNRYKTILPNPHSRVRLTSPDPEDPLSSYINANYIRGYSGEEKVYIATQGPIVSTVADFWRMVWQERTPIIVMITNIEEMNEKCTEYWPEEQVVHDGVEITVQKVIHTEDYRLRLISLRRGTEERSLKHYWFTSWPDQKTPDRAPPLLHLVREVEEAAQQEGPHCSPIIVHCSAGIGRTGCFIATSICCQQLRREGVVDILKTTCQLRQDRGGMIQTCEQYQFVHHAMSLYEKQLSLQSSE
The data set can be described thus: Recovery of STEP activity by reducing agents. The class given is biochemical. Conditions: after 1 h, DMSO control = 100%. The protocol:
Each sample was aliquoted out and 50 µL was transferred to wells of a 96-well microtiter plate containing 40 µL of 2× assay buffer with added reductant (GSH or DTT, 1 mM final concentration) and shaken for 0, 15, 30, or 60 additional minutes at ambient temperature. The reaction was started by addition of 10 µL of 10× pNPP substrate (stock, 20 mM, 2 mM in assay; total assay volume, 100 µL), and reaction progress was immediately monitored at 405 nm at a temperature of 27°C. The initial rate data collected were used to determine enzyme activity standardized to the DMSO controls.

As a reminder, the IC50 is the concentration needed to halve the response being measured. Higher therefore signals a need for much substance.

In data set [1], `Cl.Nc1cc(C(F)(F)F)cc2c1SSSSS2` [TC-2153, 8-(trifluoromethyl)-1,2,3,4,5-benzopentathiepin-6-amine hydrochloride] came in with an IC50 of 6.9 µM. In addition, the “MWM probe trial, target zone” value in data set [2] (3xTg-AD mice, 24 h after last acquisition day) is “spent as much time as WT mice in the target zone”. In addition, in data set [2] (3xTg-AD mice, daily injection 3 h prior to training, days 5 and 6), the “MWM acquisition phase escape latency” value is recorded as “reversed memory deficits”. Further, the “MWM cued trial escape latency, AD mice” value in data set [2] (AD-TC, visible platform, AD-Veh 15.3±3.0) worked out at 16.0 ± 2.3 s. For the same compound, the “MWM cued trial escape latency, WT mice” value in data set [2] (WT-TC, visible platform, WT-Veh 15.1±1.7) came out at 15.6 ± 1.7 s. In addition, the “Stability with GSH (19F NMR)” value in data set [3] (1 mM GSH in pH 7.0 imidazole buffer) is “compound modification clearly observed”. Moreover, the “Stability in assay conditions (19F NMR)” value in data set [3] (pH 7.0 imidazole buffer) is “stable and did not degenerate in the assay conditions”. Also, in data set [4], the “pERK1/2 in cortex (P2 fraction)” value was found to be 2.52±0.16, the “pGluN2B in cortex (P2 fraction)” value worked out at 1.66±0.28 and the “pPyk2 in cortex (P2 fraction)” value is given as 1.80±0.30. Also, the “Recovery of STEP activity with DTT” value in data set [5] (STEP 200 nM preincubated with 5 µM TC-2153, 1 mM DTT) is 75%. For the same compound, the “Recovery of STEP activity with GSH” value in data set [5] (STEP 200 nM preincubated with 5 µM TC-2153, 1 mM GSH) was 29%.
